Data on 3 compounds can be found in publication PMC4789278, “Pharmacological inhibition of LSD1 for the treatment of MLL-rearranged leukemia” (Journal of Hematology & Oncology, 2016).

A word on the IC50: it is the point on the concentration scale where inhibition reaches its midpoint.

Read-outs that look alike come from different tables or passages of the source.

The test system of assay [1] is MV4-11 leukemia cells. Put plainly: Antiproliferation assay (XTT), MV4-11. Format: cell-based. The conditions noted are these: Homo sapiens, MV4-11, 360 h; 15-day treatment; MLL-rearranged leukemia; read-out: MV4-11 EC50 (antiproliferative). The method, then: Next, these three compounds were tested for their cellular activity against proliferation of MV4-11 leukemia cells bearing MLL-AF4 fusion oncogene.
(§1) These compounds were incubated with a panel of six human leukemia and solid tumor cell lines, including two MLL-rearranged leukemia cells MV4-11 and Molm-13 containing fusion oncogenes MLL-AF4 and -AF9, respectively. […] Also included in the studies are breast cancer MCF-7 and prostate cancer LNCaP cells.
(§2) Proliferation inhibition assay for suspension leukemia cells was performed using an XTT assay kit (Roche) with our previously described method. Proliferation inhibition assay for solid tumor cell lines MCF-7 and LNCaP was performed using our previous described MTT assay. The antiproliferation EC50 values were determined by Prism, and the reported results were the mean values of at least three independent experiments.
In general terms: Formazan colour is commonly taken as a measure of viable cells.

A further assay concerns the target T1, human MAO-A (Homo sapiens, UniProt P21397).
T1 construct: purchased Sigma
T1 sequence (P21397 1-527): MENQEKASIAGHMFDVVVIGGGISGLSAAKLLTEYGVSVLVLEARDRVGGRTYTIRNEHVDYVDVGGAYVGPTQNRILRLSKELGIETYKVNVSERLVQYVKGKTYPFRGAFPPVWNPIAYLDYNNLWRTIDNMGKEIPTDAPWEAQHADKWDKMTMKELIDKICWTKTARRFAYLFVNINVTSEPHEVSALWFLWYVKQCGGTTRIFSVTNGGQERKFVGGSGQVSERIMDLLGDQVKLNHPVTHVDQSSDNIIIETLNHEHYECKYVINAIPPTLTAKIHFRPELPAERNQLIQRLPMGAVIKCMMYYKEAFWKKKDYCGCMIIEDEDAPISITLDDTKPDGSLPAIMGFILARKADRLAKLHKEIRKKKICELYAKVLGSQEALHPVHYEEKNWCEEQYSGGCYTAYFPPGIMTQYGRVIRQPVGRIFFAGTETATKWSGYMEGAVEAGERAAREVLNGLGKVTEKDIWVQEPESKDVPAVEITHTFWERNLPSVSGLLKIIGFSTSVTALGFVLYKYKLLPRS
Kind of assay: MAO-A inhibition (MAO-Glo). Format: biochemical. The conditions noted are these: read-out: MAO-A IC50. The method, then:
The cyclopropylamine LSD1 inhibitors were generally derived from MAO-A/-B inhibitor tranylcypromine, an antidepression drug. Because MAO-A and -B play important roles in the degradation of neurotransmitters (e.g., serotonin and dopamine) in the central nervous system, selective inhibition for LSD1 is highly desirable.
(§3) Recombinant human MAO-A and -B were purchased from Sigma. The inhibitory activity was determined using MAO-Glo assay kit (Promega). In brief, following the manufacturer’s protocol, assays were performed in 384-well white plates (Corning) using MAO-A or -B (100 nM) with a final volume of 20 μL. Reactions were quenched after 60 min by adding reconstituted luciferin detection reagent (20 μL/well); 20 min after addition of the detection reagent, the luminescence of each well was measured using Beckman DTX-880 microplate reader. IC50 calculation was similar to that of LSD1.

The test system of another assay is U937 leukemia cells. Kind of assay: Antiproliferation assay (XTT), U937. The conditions noted are these: Homo sapiens, U-937, 360 h; 15-day treatment; non-MLL leukemia cells; read-out: U937 EC50 (antiproliferative). Format: cell-based. The method, then: (§4) We next examined the spectrum of antitumor activity for compounds 1–4. These compounds were incubated with a panel of six human leukemia and solid tumor cell lines, including two MLL-rearranged leukemia cells MV4-11 and Molm-13 containing fusion oncogenes MLL-AF4 and -AF9, respectively. […] Also included in the studies are breast cancer MCF-7 and prostate cancer LNCaP cells. […]
as §2

For another assay, the system named is NB4 leukemia cells. Put plainly: Antiproliferation assay (XTT), NB4. Format: cell-based. The settings on record: Homo sapiens, 360 h; 15-day treatment; non-MLL leukemia cells; read-out: NB4 EC50 (antiproliferative). As for the experimental part:
as §4, §2

Assay [2] relates to prostate cancer LNCaP cells. Put plainly: Antiproliferation assay (MTT), LNCaP. It is filed as cell-based. The conditions noted are these: Homo sapiens, 360 h, 15-day treatment, read-out: LNCaP EC50 (antiproliferative). As for the experimental part: as §4, §2
A further assay concerns the target T2, human MAO-B (Homo sapiens, UniProt P27338).
T2 construct: purchased Sigma
T2 sequence (P27338 1-520): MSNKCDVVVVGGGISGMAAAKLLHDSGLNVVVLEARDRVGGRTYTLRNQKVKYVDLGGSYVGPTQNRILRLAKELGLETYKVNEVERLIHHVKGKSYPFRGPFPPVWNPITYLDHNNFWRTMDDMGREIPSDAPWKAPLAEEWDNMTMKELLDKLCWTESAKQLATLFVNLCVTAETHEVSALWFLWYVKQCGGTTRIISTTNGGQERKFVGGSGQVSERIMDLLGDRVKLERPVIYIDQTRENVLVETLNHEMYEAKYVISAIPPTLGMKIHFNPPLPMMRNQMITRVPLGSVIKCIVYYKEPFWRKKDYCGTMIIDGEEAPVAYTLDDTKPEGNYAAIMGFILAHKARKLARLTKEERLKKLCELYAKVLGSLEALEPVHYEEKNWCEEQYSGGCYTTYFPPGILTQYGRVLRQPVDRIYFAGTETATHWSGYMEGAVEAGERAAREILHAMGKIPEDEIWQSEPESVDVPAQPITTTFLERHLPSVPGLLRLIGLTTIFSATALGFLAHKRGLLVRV
Put plainly: MAO-B inhibition (MAO-Glo). It is filed as biochemical. The method, then: Because MAO-A and -B play important roles in the degradation of neurotransmitters (e.g., serotonin and dopamine) in the central nervous system, selective inhibition for LSD1 is highly desirable.
as §3

Assay [3] relates to Molm-13 leukemia cells. Put plainly: Antiproliferation assay (XTT), Molm-13. The conditions noted are these: Homo sapiens, MOLM-13, 360 h; 15-day treatment; MLL-rearranged leukemia; read-out: Molm-13 EC50 (antiproliferative). Format: cell-based. The method, then: as §1, §2
The test system of assay [4] is human primary leukemia cells from an AML patient with MLL-ENL fusion oncogene. Kind of assay: Colony-forming assay. Format: cell-based. The conditions noted are these: 336 h, colonies counted after 14 days, read-out: colony-forming ability EC50. The method, then:
Colony-forming assay using non-serum culture media represents a useful method to assess self-renewal capacity of stem-like cancer cells. The number of cell colonies formed in the assay reflects the proportion of stem-like cells in a given number of cancer cells. […] Human MLL-rearranged AML samples will be obtained from the Children’s Oncology Group (COG) Biopathology Center, in accordance with the IRB-approved protocol H-24170. The colony-forming assay was performed according to our previously published method. After 14 days, the colony number of each culture dish was counted and imported into Prism 5.0 and EC50 values were determined by using the sigmoidal dose response curve fitting in the software.

The target in the next assay is T3, recombinant human LSD1 (Homo sapiens, UniProt O60341).
T3 construct: Human LSD1 catalytic domain (172-833) was cloned; made in house; host or cells: E. coli BL21-CodonPlus (Agilent)
Kind of assay: LSD1 enzyme inhibition assay (HRP/Amplex red). Format: biochemical. The conditions noted are these: for Selectivity index for LSD1: LSD1 versus MAO-A and -B. As for the experimental part:
The LSD1 inhibition assay was performed with the reaction rate (i.e., amount of the product H2O2, Additional file 1: Figure S2) being quantitatively determined by adding horseradish peroxidase (HRP) and a HRP fluorescence substrate Amplex red.
Human LSD1 catalytic domain (172-833) was cloned and inserted into pGEX-KG vector. The correctness of insert was verified by sequencing. BL21-CodonPlus strain (Agilent) was transformed with the pGEX-KG-LSD1 plasmid and cultured at 37 °C in LB medium containing ampicillin (50 μg/mL) and chloramphenicol (34 μg/mL). Upon reaching an optical density of ~0.9 at 600 nm, LSD1 expression was induced by adding 0.2 mM isopropylthiogalactoside at 25 °C for 20 h. Cells were harvested, lysed, and centrifuged at 20,000 rpm for 20 min, and the supernatant was collected and subjected to an affinity column chromatography using the glutathione sepharose resin.
The inhibition assay for the recombinant LSD1 was performed using a published protocol, with the reaction rate (i.e., amount of the product H2O2) being quantitatively determined by adding HRP and a HRP fluorescence substrate Amplex red. […] The total volume of the reaction mixture is 60 μL. After 20 min, 60-μL solution containing HRP (0.01 unit) and Amplex red (80 μM) was added and the fluorescence of each well was determined using a Beckman DTX-880 microplate reader (excitation at 535 and emission at 595 nm). Data were imported into Prism 5.0 (GraphPad), and the IC50 values were calculated by using the sigmoidal dose response curve fitting in the software. The reported IC50s were the mean values of at least three independent experiments.

The subject of assay [5] is breast cancer MCF-7 cells. Kind of assay: Antiproliferation assay (MTT), MCF-7. The settings on record: Homo sapiens, MCF7, 360 h, 15-day treatment, read-out: MCF-7 EC50 (antiproliferative). It is filed as cell-based. As for the experimental part:
as §1, §2

Assay [6] has as its system MV4-11 leukemia cells. The arrangement: method as in PMID 22924785. The conditions noted are these: read-out: MV4-11 proliferation EC50; cited from earlier work.
The subject of assay [7] is Molm-13 leukemia cells. The arrangement: method as in PMID 22924785. The settings on record: read-out: Molm-13 proliferation EC50; cited from earlier work.
Assay [8] concerns H3K79 methylation in MV4-11 cells. The arrangement: method as in PMID 23795283. The settings on record: read-out: IC50 for inhibition of H3K79 methylation; cited from earlier work.

For `CN1CCN(C(=O)CNC2CC2c2ccc(Br)cc2)CC1` (centres unmarked) [Compound 3], the EC50 in the assay with MV4-11 leukemia cells [1] was 0.02 µM; in the assay with U937 leukemia cells it was > 50 µM; in the assay with NB4 leukemia cells, > 50 µM; in assay [2] it was 29.9 µM; with Molm-13 leukemia cells [3], 0.18 µM; in [4] it was 0.48 µM. Besides, the EC50 in assay [5] amounted to 13.5 µM. The IC50 on human MAO-A was determined as 7.3 µM; on human MAO-B it was 16.3 µM; on recombinant human LSD1 it was 0.035 µM. Further, the “selectivity for LSD1 inhibition over MAO-A and -B” value on recombinant human LSD1 is given as > 200 fold. The “Selectivity index for LSD1” value at recombinant human LSD1 is reported as >208.
On to `NC1CC1c1ccc(-c2ccc(F)nc2)cc1` (centres unmarked) [Compound 4], for which the EC50 with MV4-11 leukemia cells [1] is 1.4 µM; with U937 leukemia cells it was 17.5 µM; in the assay with NB4 leukemia cells, > 50 µM; in [2], > 50 µM; in the assay with Molm-13 leukemia cells [3], 12 µM; in assay [5], > 50 µM. In addition, the half-maximal inhibitory concentration (IC50) amounted to 0.42 µM on human MAO-A, 3.1 µM on human MAO-B and 5.3 µM on recombinant human LSD1. At recombinant human LSD1, the “fold less potent than compound 2 against LSD1” value is on record as ~ 70 fold. The “Selectivity index for LSD1” value at recombinant human LSD1 is on record as <0.58.
In the case of `CC(C)N(CCCNC(=O)Nc1ccc(C(C)(C)C)cc1)CC1OC(n2cnc3c(N)ncnc32)C(O)C1O` (centres unmarked) [SYC-522], the EC50 in the assay on MV4-11 leukemia cells [6] was ~4 µM; in the assay with Molm-13 leukemia cells [7], ~7 µM. Further, the 50% inhibitory concentration (IC50) in assay [8] is ~0.2 µM.
